# In PMC7174318, “The novel E. coli cell division protein, YtfB, plays a role in eukaryotic cell adhesion” (Scientific Reports, 2020):
# Like-named read-outs stand apart in the source and are kept apart here.
# Target: T1, YtfB (his6-YtfB, C-terminal domain) (Escherichia coli, UniProt P39310)
# T1 construct: extracellular C-terminal region, residues 52-212 incl; LysM-like (OapA) domain; His6 tag kept; pETMCSIII-ytfB, expressed in E. coli BL21 AI
# Experiment: surface plasmon resonance, steady state affinity, YtfB immobilised by amine coupling on CM5
# Assay type: binding
# Details: PBS running buffer
# T1 sequence (P39310 52-212): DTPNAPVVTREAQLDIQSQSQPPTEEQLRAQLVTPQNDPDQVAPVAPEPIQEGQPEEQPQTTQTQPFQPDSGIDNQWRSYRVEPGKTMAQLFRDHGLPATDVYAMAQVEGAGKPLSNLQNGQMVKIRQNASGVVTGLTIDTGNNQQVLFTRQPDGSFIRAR
SMILES,Kd [nM],Kd (read-out: KD) [nM]
"CC(=O)N[C@H]1[C@H](O[C@H]2[C@H](O)[C@@H](NC(C)=O)C(O)O[C@@H]2CO)O[C@H](CO)[C@@H](O[C@@H]2O[C@H](CO)[C@@H](O)[C@H](O)[C@H]2NC(C)=O)[C@@H]1O (stereo partly shown) [4B, GlcNAcβ1-4GlcNAcβ1-4GlcNAc]",3300 ± 2130,
"CC(=O)N[C@H]1[C@H](O[C@H]2[C@H](O)[C@@H](NC(C)=O)[C@H](O[C@H]3[C@H](O)[C@@H](NC(C)=O)C(O)O[C@@H]3CO)O[C@@H]2CO)O[C@H](CO)[C@@H](O[C@@H]2O[C@H](CO)[C@@H](O[C@@H]3O[C@H](CO)[C@@H](O[C@@H]4O[C@H](CO)[C@@H](O)[C@H](O)[C@H]4NC(C)=O)[C@H](O)[C@H]3NC(C)=O)[C@H](O)[C@H]2NC(C)=O)[C@@H]1O (stereo partly shown) [4D, hexaacetylchitohexaose]",24.8 ± 5.3,
"OC[C@H]1O[C@H](O[C@@H]2C(O)O[C@H](CO)[C@@H](O)[C@@H]2O)[C@@H](O)[C@@H](O)[C@@H]1O (stereo partly drawn) [5C, α1–2mannobiose]",43.3,
"OC[C@H]1O[C@H](O[C@H]2[C@H](O)[C@@H](CO)OC(O)[C@H]2O)[C@@H](O)[C@@H](O)[C@@H]1O (stereo partly drawn) [5D, α1–3mannobiose]",345,
"OC[C@H]1O[C@H](O[C@H]2[C@H](O)[C@H](O)C(O)O[C@@H]2CO)[C@@H](O)[C@@H](O)[C@@H]1O (stereo partly drawn) [5E, α1–4mannobiose]",31.2,
"OC[C@H]1O[C@H](OC[C@H]2OC(O)[C@@H](O)[C@@H](O)[C@@H]2O)[C@@H](O)[C@@H](O)[C@@H]1O (stereo partly drawn) [5F, α1–6 mannobiose]",,112
CC(=O)N[C@H]1[C@H](O[C@H]2[C@H](O)[C@@H](NC(C)=O)C(O)O[C@@H]2CO)O[C@H](CO)[C@@H](O[C@@H]2O[C@H](CO)[C@@H](O[C@@H]3O[C@H](CO)[C@@H](O)[C@H](O)[C@H]3NC(C)=O)[C@H](O)[C@H]2NC(C)=O)[C@@H]1O (stereo partly shown) [tetraose (N’acetylglucosamine)],463 ± 71,
